Usually MIC stands for the smallest concentration in the dilution series that meets the test's criterion for growth inhibition. Read a low MIC as greater potency.

Assay type in all cases: functional
Holding throughout (conditions): time 16-18 hrs

Test [1] has as its system Staphylococcus aureus. Briefly: Antibacterial activity against methicillin-resistant Staphylococcus aureus USA300 incubated for 16 to 18 hrs by muller hinton broth based microplate reader analysis.
For test [2], the system named is Staphylococcus aureus. Briefly: Antibacterial activity vancomycin-intermediate resistant Staphylococcus aureus incubated for 16 to 18 hrs by muller hinton broth based microplate reader analysis.
In test [3] the test system is Escherichia coli. As to the kind of experiment: Antibacterial activity against Escherichia coli ATCC25922 incubated for 16 to 18 hrs by muller hinton broth based microplate reader analysis.
Test [4] concerns Escherichia coli. As to the kind of experiment: Antibacterial activity against Escherichia coli ATCC35150 incubated for 16 to 18 hrs by muller hinton broth based microplate reader analysis.
The subject of test [5] is Acinetobacter baumannii. Briefly: Antibacterial activity against Acinetobacter baumannii ATCC17978 incubated for 16 to 18 hrs by muller hinton broth based microplate reader analysis.
Test [6] deals with Acinetobacter baumannii. As to the kind of experiment: Antibacterial activity against Acinetobacter baumannii ATCC19606 incubated for 16 to 18 hrs by muller hinton broth based microplate reader analysis.

Turning to `CCCCCCCCCCCCCC[n+]1ccc(C(=O)NCCNC(=O)[C@H]2NC(=O)[C@H]3NC(=O)[C@H](NC(=O)[C@@H]4NC(=O)[C@H](CC(N)=O)NC(=O)[C@H](NC(=O)[C@@H](CC(C)C)NC)[C@H](O)c5ccc(c(Cl)c5)Oc5cc4cc(c5O[C@@H]4O[C@H](CO)[C@@H](O)[C@H](O)[C@H]4O[C@H]4C[C@](C)(N)[C@H](O)[C@H](C)O4)Oc4ccc(cc4Cl)[C@H]3O)c3ccc(O)c(c3)-c3c(O)cc(O)cc32)cc1.[Br-]` (stereo in doubt), the MIC in test [1] is 4 µg/mL; in test [2] it was 64 µg/mL; in test [3], > 128 µg/mL; in test [4], > 128 µg/mL; in test [5] it was > 128 µg/mL; in test [6], > 128 µg/mL.

`CCCCCCCCCC[n+]1ccc(C(=O)NCCNC(=O)[C@H]2NC(=O)[C@H]3NC(=O)[C@H](NC(=O)[C@@H]4NC(=O)[C@H](CC(N)=O)NC(=O)[C@H](NC(=O)[C@@H](CC(C)C)NC)[C@H](O)c5ccc(c(Cl)c5)Oc5cc4cc(c5O[C@@H]4O[C@H](CO)[C@@H](O)[C@H](O)[C@H]4O[C@H]4C[C@](C)(N)[C@H](O)[C@H](C)O4)Oc4ccc(cc4Cl)[C@H]3O)c3ccc(O)c(c3)-c3c(O)cc(O)cc32)cc1.[Br-]`: the MIC is 2 µg/mL in test [1]; 64 µg/mL in test [2]; > 128 µg/mL in test [3]; > 128 µg/mL in test [4]; 32 µg/mL in test [5]; 16 µg/mL in test [6].

As to `CN[C@H](CC(C)C)C(=O)N[C@H]1C(=O)N[C@@H](CC(N)=O)C(=O)N[C@H]2C(=O)N[C@H]3C(=O)N[C@H](C(=O)N[C@H](C(=O)O)c4cc(O)cc(O)c4-c4cc3ccc4O)[C@H](O)c3ccc(c(Cl)c3)Oc3cc2cc(c3O[C@@H]2O[C@H](CO)[C@@H](O)[C@H](O)[C@H]2O[C@H]2C[C@](C)(NC(=O)CCCCCCCCCCC[n+]3ccccc3)[C@H](O)[C@H](C)O2)Oc2ccc(cc2Cl)[C@H]1O.[Br-]`, the MIC in test [1] was 4 µg/mL; in test [2], 64 µg/mL; in test [3], > 128 µg/mL; in test [4] it was > 128 µg/mL; in test [5] it was > 128 µg/mL; in test [6], > 128 µg/mL.

With `CCCCCCCCCCCCCCCCCC[N+]1(C)CCN(C(=O)[C@H]2NC(=O)[C@H]3NC(=O)[C@H](NC(=O)[C@@H]4NC(=O)[C@H](CC(N)=O)NC(=O)[C@H](NC(=O)[C@@H](CC(C)C)NC)[C@H](O)c5ccc(c(Cl)c5)Oc5cc4cc(c5O[C@@H]4O[C@H](CO)[C@@H](O)[C@H](O)[C@H]4O[C@H]4C[C@](C)(N)[C@H](O)[C@H](C)O4)Oc4ccc(cc4Cl)[C@H]3O)c3ccc(O)c(c3)-c3c(O)cc(O)cc32)CC1.[Br-]` (stereo in doubt), the MIC was 1 µg/mL in test [1]; 64 µg/mL in test [2]; > 128 µg/mL in test [3]; > 128 µg/mL in test [4]; > 128 µg/mL in test [5]; > 128 µg/mL in test [6].

For `CCCCCCCCCCCCCCCC[N+]1(C)CCN(C(=O)[C@H]2NC(=O)[C@H]3NC(=O)[C@H](NC(=O)[C@@H]4NC(=O)[C@H](CC(N)=O)NC(=O)[C@H](NC(=O)[C@@H](CC(C)C)NC)[C@H](O)c5ccc(c(Cl)c5)Oc5cc4cc(c5O[C@@H]4O[C@H](CO)[C@@H](O)[C@H](O)[C@H]4O[C@H]4C[C@](C)(N)[C@H](O)[C@H](C)O4)Oc4ccc(cc4Cl)[C@H]3O)c3ccc(O)c(c3)-c3c(O)cc(O)cc32)CC1.[Br-]` (stereo in doubt), the minimal inhibitory concentration (MIC) in test [1] was 8 µg/mL; in test [2], > 128 µg/mL; in test [3], 64 µg/mL; in test [4], > 128 µg/mL; in test [5], > 128 µg/mL; in test [6] it was > 128 µg/mL.

For the compound `CCCCCCCCCCCCCC[N+]1(C)CCN(C(=O)[C@H]2NC(=O)[C@H]3NC(=O)[C@H](NC(=O)[C@@H]4NC(=O)[C@H](CC(N)=O)NC(=O)[C@H](NC(=O)[C@@H](CC(C)C)NC)[C@H](O)c5ccc(c(Cl)c5)Oc5cc4cc(c5O[C@@H]4O[C@H](CO)[C@@H](O)[C@H](O)[C@H]4O[C@H]4C[C@](C)(N)[C@H](O)[C@H](C)O4)Oc4ccc(cc4Cl)[C@H]3O)c3ccc(O)c(c3)-c3c(O)cc(O)cc32)CC1.[Br-]` (stereo in doubt), the MIC came to 1 µg/mL in test [1]; 32 µg/mL in test [2]; 32 µg/mL in test [3]; 32 µg/mL in test [4]; 32 µg/mL in test [5]; 32 µg/mL in test [6].

Consider `CN[C@H](CC(C)C)C(=O)N[C@H]1C(=O)N[C@@H](CC(N)=O)C(=O)N[C@H]2C(=O)N[C@H]3C(=O)N[C@H](C(=O)N[C@H](C(=O)O)c4cc(O)cc(O)c4-c4cc3ccc4O)[C@H](O)c3ccc(c(Cl)c3)Oc3cc2cc(c3O[C@@H]2O[C@H](CO)[C@@H](O)[C@H](O)[C@H]2O[C@H]2C[C@](C)(NC(=O)CCCCCCCCCCC[n+]3cccc(NC(=O)OC(C)(C)C)c3)[C@H](O)[C@H](C)O2)Oc2ccc(cc2Cl)[C@H]1O.[Br-]`, for which the MIC is 4 µg/mL in test [1]; > 128 µg/mL in test [2]; > 128 µg/mL in test [3]; > 128 µg/mL in test [4]; > 128 µg/mL in test [5]; > 128 µg/mL in test [6].

As for `CN[C@H](CC(C)C)C(=O)N[C@H]1C(=O)N[C@@H](CC(N)=O)C(=O)N[C@H]2C(=O)N[C@H]3C(=O)N[C@H](C(=O)N[C@H](C(=O)O)c4cc(O)cc(O)c4-c4cc3ccc4O)[C@H](O)c3ccc(c(Cl)c3)Oc3cc2cc(c3O[C@@H]2O[C@H](CO)[C@@H](O)[C@H](O)[C@H]2O[C@H]2C[C@](C)(NC(=O)CCCCCCCCCCC[n+]3cccc(Br)c3)[C@H](O)[C@H](C)O2)Oc2ccc(cc2Cl)[C@H]1O.[Br-]`, the MIC in test [1] was 4 µg/mL; in test [2], 32 µg/mL; in test [3], > 128 µg/mL; in test [4] it was > 128 µg/mL; in test [5], > 128 µg/mL; in test [6] it was > 128 µg/mL.

For `CN[C@H](CC(C)C)C(=O)N[C@H]1C(=O)N[C@@H](CC(N)=O)C(=O)N[C@H]2C(=O)N[C@H]3C(=O)N[C@H](C(=O)N[C@H](C(=O)O)c4cc(O)cc(O)c4-c4cc3ccc4O)[C@H](O)c3ccc(c(Cl)c3)Oc3cc2cc(c3O[C@@H]2O[C@H](CO)[C@@H](O)[C@H](O)[C@H]2O[C@H]2C[C@](C)(NC(=O)CCCCCCCCCCC[n+]3cccc(C(C)=O)c3)[C@H](O)[C@H](C)O2)Oc2ccc(cc2Cl)[C@H]1O.[Br-]`, the MIC in test [1] was 4 µg/mL; in test [2], 64 µg/mL; in test [3], > 128 µg/mL; in test [4] it was > 128 µg/mL; in test [5] it was > 128 µg/mL; in test [6], > 128 µg/mL.

On to `CN[C@H](CC(C)C)C(=O)N[C@H]1C(=O)N[C@@H](CC(N)=O)C(=O)N[C@H]2C(=O)N[C@H]3C(=O)N[C@H](C(=O)N[C@H](C(=O)O)c4cc(O)cc(O)c4-c4cc3ccc4O)[C@H](O)c3ccc(c(Cl)c3)Oc3cc2cc(c3O[C@@H]2O[C@H](CO)[C@@H](O)[C@H](O)[C@H]2O[C@H]2C[C@](C)(NC(=O)CCCCCCCCCCC[n+]3ccc(C)cc3)[C@H](O)[C@H](C)O2)Oc2ccc(cc2Cl)[C@H]1O.[Br-]`, for which the MIC was 4 µg/mL in test [1]; > 128 µg/mL in test [2]; > 128 µg/mL in test [3]; > 128 µg/mL in test [4]; > 128 µg/mL in test [5]; > 128 µg/mL in test [6].

`CCCCCCCCCC[N+]1(C)CCN(C(=O)c2ccc(CN[C@@]3(C)C[C@H](O[C@H]4[C@H](Oc5c6cc7cc5Oc5ccc(cc5Cl)[C@@H](O)[C@@H](NC(=O)[C@@H](CC(C)C)NC)C(=O)N[C@@H](CC(N)=O)C(=O)N[C@H]7C(=O)N[C@H]5C(=O)N[C@H](C(=O)N[C@H](C(=O)O)c7cc(O)cc(O)c7-c7cc5ccc7O)[C@H](O)c5ccc(c(Cl)c5)O6)O[C@H](CO)[C@@H](O)[C@@H]4O)O[C@@H](C)[C@H]3O)cc2)CC1.[Br-]`: the MIC in test [1] is 1 µg/mL; in test [2], 64 µg/mL; in test [3] it was 64 µg/mL; in test [4], 64 µg/mL; in test [5], > 128 µg/mL; in test [6] it was 64 µg/mL.

Take `CN[C@H](CC(C)C)C(=O)N[C@H]1C(=O)N[C@@H](CC(N)=O)C(=O)N[C@H]2C(=O)N[C@H]3C(=O)N[C@H](C(=O)N[C@H](C(=O)O)c4cc(O)cc(O)c4-c4cc3ccc4O)[C@H](O)c3ccc(c(Cl)c3)Oc3cc2cc(c3O[C@@H]2O[C@H](CO)[C@@H](O)[C@H](O)[C@H]2O[C@H]2C[C@](C)(NC(=O)CCCCCCCCCCC[n+]3ccc(N)cc3)[C@H](O)[C@H](C)O2)Oc2ccc(cc2Cl)[C@H]1O.O=C(O)C(F)(F)F.[Br-]`: the MIC in test [1] is 1 µg/mL; in test [2], 32 µg/mL; in test [3], > 128 µg/mL; in test [4], > 128 µg/mL; in test [5], > 128 µg/mL; in test [6], > 128 µg/mL.

Take `CN[C@H](CC(C)C)C(=O)N[C@H]1C(=O)N[C@@H](CC(N)=O)C(=O)N[C@H]2C(=O)N[C@H]3C(=O)N[C@H](C(=O)N[C@H](C(=O)O)c4cc(O)cc(O)c4-c4cc3ccc4O)[C@H](O)c3ccc(c(Cl)c3)Oc3cc2cc(c3O[C@@H]2O[C@H](CO)[C@@H](O)[C@H](O)[C@H]2O[C@H]2C[C@](C)(NC(=O)CCCCCCCCCCC[n+]3cccc(F)c3)[C@H](O)[C@H](C)O2)Oc2ccc(cc2Cl)[C@H]1O.[Br-]`: the minimum inhibitory concentration (MIC) in test [1] was 4 µg/mL; in test [2], 64 µg/mL; in test [3], > 128 µg/mL; in test [4] it was > 128 µg/mL; in test [5], > 128 µg/mL; in test [6] it was > 128 µg/mL.

On to `CCCCCCCCCC[N+]1(C)CCN(C(=O)[C@H]2NC(=O)[C@H]3NC(=O)[C@H](NC(=O)[C@@H]4NC(=O)[C@H](CC(N)=O)NC(=O)[C@H](NC(=O)[C@@H](CC(C)C)NC)[C@H](O)c5ccc(c(Cl)c5)Oc5cc4cc(c5O[C@@H]4O[C@H](CO)[C@@H](O)[C@H](O)[C@H]4O[C@H]4C[C@](C)(N)[C@H](O)[C@H](C)O4)Oc4ccc(cc4Cl)[C@H]3O)c3ccc(O)c(c3)-c3c(O)cc(O)cc32)CC1.[Br-]` (stereo in doubt), for which the minimum inhibitory concentration (MIC) in test [1] came to 1 µg/mL; in test [2], 1 µg/mL; in test [3], 16 µg/mL; in test [4], 16 µg/mL; in test [5], 32 µg/mL; in test [6], 32 µg/mL.
